Test results as given in patent US7235549B2, “Benzamide, heteroarylamide and reverse amides” (Pfizer Inc., priority 2001, dated 2007).

- melting point: 148 to 150 °C
Compound: O=C(NCCc1ccccc1C(F)(F)F)c1cc(-n2ncc(=O)[nH]c2=O)ccc1Cl [Example 48, 2-Chloro-5-(3,5-dioxo-4,5-dihydro-3H-[1,2,4]triazin-2-yl)-N-[2-(2-trifluoromethyl-phenyl)-ethyl]-benzamide]
